Legend:
barnyardgrass [1] = test: Test A postemergence; format: in vivo, Echinochloa crus-galli
Procedure, shortened: (§1)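 Visual 0–100 rating (100 = complete control) taken about 10 d post-treatment relative to untreated checks. Preemergence: directed soil spray on sown loam/sand pots. Postemergence: seedlings 2–10 cm, 1–2 leaf. Non-phytotoxic solvent formulation with surfactant.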

kochia [2] = test: Test A preemergence; format: in vivo, Kochia scoparia
Procedure, shortened: as §1

giant foxtail [3] = test: Test A preemergence; format: in vivo, Setaria faberii
Procedure, shortened: as §1

barnyardgrass [4] = test: Test A preemergence; format: in vivo, Echinochloa crus-galli
Procedure, shortened: as §1

giant foxtail [5] = test: Test A postemergence; format: in vivo, Setaria faberii
Procedure, shortened: as §1

ragweed [6] = test: Test A postemergence; format: in vivo, Ambrosia elatior
Procedure, shortened: as §1

pigweed [7] = test: Test A postemergence; format: in vivo, Amaranthus retroflexus
Procedure, shortened: as §1

corn = test: Test A postemergence; format: in vivo, Zea mays
Procedure, shortened: as §1

Italian ryegrass [8] = test: Test A postemergence; format: in vivo, Lolium multiflorum
Procedure, shortened: as §1

wheat = test: Test A postemergence; format: in vivo, Triticum aestivum
Procedure, shortened: as §1

blackgrass = test: Test A postemergence; format: in vivo, Alopecurus myosuroides
Procedure, shortened: as §1

rice = test: Test B flooded paddy test; format: in vivo, Oryza sativa; conditions: Flood, 250 g ai/ha; 0 to 100 scale where 0 is no effect and 100 is complete control
Procedure, shortened: (§2)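 Flooded to 3 cm at the 2-leaf stage, pots received compound through the paddy water and were kept at that depth under greenhouse conditions. After 13–15 days, effect was rated by eye relative to controls, 0 = none and 100 = complete control.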

Italian ryegrass [9] = test: Test A preemergence; format: in vivo, Lolium multiflorum
Procedure, shortened: as §1

sedge, umbrella = test: Test B flooded paddy test; format: in vivo, Cyperus difformis; conditions: Flood, 250 g ai/ha; 0 to 100 scale where 0 is no effect and 100 is complete control
Procedure, shortened: as §2

barnyardgrass [10] = test: Test B flooded paddy test; format: in vivo, Echinochloa crus-galli; conditions: Flood, 250 g ai/ha; 0 to 100 scale where 0 is no effect and 100 is complete control
Procedure, shortened: as §2

Heteranthera limosa = test: Test B flooded paddy test; format: in vivo; conditions: Flood, 250 g ai/ha; 0 to 100 scale where 0 is no effect and 100 is complete control
Procedure, shortened: as §2

kochia [11] = test: Test A postemergence; format: in vivo, Kochia scoparia
Procedure, shortened: as §1

galium = test: Test A postemergence; format: in vivo, Galium aparine
Procedure, shortened: as §1

pigweed [12] = test: Test A preemergence; format: in vivo, Amaranthus retroflexus
Procedure, shortened: as §1

ragweed [13] = test: Test A preemergence; format: in vivo, Ambrosia elatior
Procedure, shortened: as §1

[14] = 125 g ai/ha, 0 to 100 scale where 0 is no effect and 100 is complete control
[15] = 500 g ai/ha, 0 to 100 scale where 0 is no effect and 100 is complete control
[16] = 31 g ai/ha, 0 to 100 scale, 0 no effect, 100 complete control
[17] = 125 g ai/ha, 0 to 100 scale, 0 no effect, 100 complete control
[18] = 31 g ai/ha, 0 to 100 scale where 0 is no effect and 100 is complete control, visual, approximately 10 days

Structure (SMILES): CC(C)c1cnc(Oc2cccc(C#N)c2-n2cc(Br)cn2)nc1 [Compound 130]
- Barnyardgrass plant response rating (barnyardgrass [1]; [14]): 0
- Plant response rating, Barnyardgrass (barnyardgrass [1]; [15]): 0
- Plant response rating, Kochia (kochia [2]; [14]): 0
- Kochia plant response rating (kochia [2]; [15]): 0
- Plant response rating, Foxtail, Giant (giant foxtail [3]; [14]): 0
- Foxtail, Giant plant response rating (giant foxtail [3]; [15]): 0
- Plant response rating, Barnyardgrass (barnyardgrass [4]; [14]): 0
- Barnyardgrass plant response rating (barnyardgrass [4]; [15]): 0
- Foxtail, Giant plant response rating (giant foxtail [5]; [14]): 0
- Plant response rating, Foxtail, Giant (giant foxtail [5]; [15]): 0
- Ragweed plant response rating (ragweed [6]; [14]): 0
- Plant response rating, Ragweed (ragweed [6]; [15]): 0
- Pigweed plant response rating (pigweed [7]; [14]): 0
- Plant response rating, Pigweed (pigweed [7]; [15]): 0
- Corn plant response rating (corn; [14]): 0
- Plant response rating, Corn (corn; [15]): 0
- Ryegrass, Italian plant response rating (Italian ryegrass [8]; [14]): 0
- Plant response rating, Ryegrass, Italian (Italian ryegrass [8]; [15]): 0
- Wheat plant response rating (wheat; [14]): 0
- Plant response rating, Wheat (wheat; [15]): 0
- Blackgrass plant response rating (blackgrass; [14]): 0
- Plant response rating, Blackgrass (blackgrass; [15]): 0
- Plant response rating, Rice (rice): 0
- Plant response rating, Ryegrass, Italian (Italian ryegrass [9]; [14]): 0
- Ryegrass, Italian plant response rating (Italian ryegrass [9]; [15]): 0
- Plant response rating, Sedge, Umbrella (sedge, umbrella): 0
- Plant response rating, Barnyardgrass (barnyardgrass [10]): 0
- Plant response rating, Ducksalad (Heteranthera limosa): 0
- Kochia plant response rating (kochia [11]; [14]): 0
- Plant response rating, Kochia (kochia [11]; [15]): 0
- Galium plant response rating (galium; [14]): 0
- Plant response rating, Galium (galium; [15]): 0
- Plant response rating, Pigweed (pigweed [12]; [14]): 0
- Pigweed plant response rating (pigweed [12]; [15]): 0
- Plant response rating, Ragweed (ragweed [13]; [14]): 0
- Ragweed plant response rating (ragweed [13]; [15]): 0

Structure (SMILES): FC(F)Oc1cnn(-c2c(Br)cccc2Oc2ncc(Cl)cn2)c1 [Compound 122]
- Plant response rating, Barnyardgrass (barnyardgrass [1]; [16]): 10
- Barnyardgrass plant response rating (barnyardgrass [1]; [14]): 40
- Kochia plant response rating (0 to 100 scale) (kochia [2]; 31 g ai/ha): 20
- Plant response rating, Kochia (kochia [2]; [14]): 100
- Foxtail, Giant plant response rating (0 to 100 scale) (giant foxtail [3]; 31 g ai/ha): 50
- Plant response rating, Foxtail, Giant (giant foxtail [3]; [14]): 100
- Barnyardgrass plant response rating (0 to 100 scale) (barnyardgrass [4]; 31 g ai/ha): 10
- Plant response rating, Barnyardgrass (barnyardgrass [4]; [14]): 70
- Plant response rating, Foxtail, Giant (giant foxtail [5]; [16]): 10
- Foxtail, Giant plant response rating (giant foxtail [5]; [14]): 60
- Plant response rating, Ragweed (ragweed [6]; [16]): 10
- Ragweed plant response rating (ragweed [6]; [14]): 30
- Plant response rating, Pigweed (pigweed [7]; [16]): 70
- Pigweed plant response rating (pigweed [7]; [14]): 100
- Plant response rating, Corn (corn; [16]): 10
- Corn plant response rating (corn; [14]): 30
- Plant response rating, Ryegrass, Italian (Italian ryegrass [8]; [16]): 0
- Ryegrass, Italian plant response rating (Italian ryegrass [8]; [14]): 20
- Plant response rating, Wheat (wheat; [16]): 0
- Wheat plant response rating (wheat; [14]): 10
- Plant response rating, Blackgrass (blackgrass; [16]): 30
- Blackgrass plant response rating (blackgrass; [14]): 80
- Plant response rating, Rice (rice): 0
- Ryegrass, Italian plant response rating (0 to 100 scale) (Italian ryegrass [9]; 31 g ai/ha): 0
- Plant response rating, Ryegrass, Italian (Italian ryegrass [9]; [14]): 0
- Plant response rating, Sedge, Umbrella (sedge, umbrella): 75
- Plant response rating, Barnyardgrass (barnyardgrass [10]): 0
- Plant response rating, Ducksalad (Heteranthera limosa): 80
- Plant response rating, Kochia (kochia [11]; [16]): 50
- Kochia plant response rating (kochia [11]; [14]): 90
- Plant response rating, Galium (galium; [16]): 20
- Galium plant response rating (galium; [14]): 40
- Pigweed plant response rating (0 to 100 scale) (pigweed [12]; 31 g ai/ha): 80
- Plant response rating, Pigweed (pigweed [12]; [14]): 100
- Ragweed plant response rating (0 to 100 scale) (ragweed [13]; 31 g ai/ha): 0
- Plant response rating, Ragweed (ragweed [13]; [14]): 0

Structure (SMILES): FCc1cccc(Oc2ncc(F)cn2)c1-n1cc(Cl)cn1 [Compound 249]
- Plant response rating, Barnyardgrass (barnyardgrass [1]; [16]): 0
- Plant response rating, Barnyardgrass (barnyardgrass [1]; [17]): 60
- Plant response rating, Kochia (kochia [2]; [18]): 0
- Kochia plant response rating (0 to 100 scale) (kochia [2]; 125 g ai/ha): 40
- Plant response rating, Foxtail, Giant (giant foxtail [3]; [18]): 0
- Foxtail, Giant plant response rating (0 to 100 scale) (giant foxtail [3]; 125 g ai/ha): 0
- Plant response rating, Barnyardgrass (barnyardgrass [4]; [18]): 0
- Barnyardgrass plant response rating (0 to 100 scale, 0 is no effect, 100 is complete control) (barnyardgrass [4]; 125 g ai/ha): 0
- Plant response rating, Foxtail, Giant (giant foxtail [5]; [16]): 0
- Plant response rating, Foxtail, Giant (giant foxtail [5]; [17]): 60
- Plant response rating, Ragweed (ragweed [6]; [16]): 10
- Plant response rating, Ragweed (ragweed [6]; [17]): 70
- Plant response rating, Pigweed (pigweed [7]; [16]): 60
- Plant response rating, Pigweed (pigweed [7]; [17]): 100
- Plant response rating, Corn (corn; [16]): 0
- Plant response rating, Corn (corn; [17]): 10
- Plant response rating, Ryegrass, Italian (Italian ryegrass [8]; [16]): 0
- Plant response rating, Ryegrass, Italian (Italian ryegrass [8]; [17]): 0
- Plant response rating, Wheat (wheat; [16]): 0
- Plant response rating, Wheat (wheat; [17]): 0
- Plant response rating, Blackgrass (blackgrass; [16]): 60
- Plant response rating, Blackgrass (blackgrass; [17]): 80
- Plant response rating, Rice (rice): 0
- Plant response rating, Ryegrass, Italian (Italian ryegrass [9]; [18]): 0
- Ryegrass, Italian plant response rating (0 to 100 scale) (Italian ryegrass [9]; 125 g ai/ha): 30
- Plant response rating, Sedge, Umbrella (sedge, umbrella): 60
- Plant response rating, Barnyardgrass (barnyardgrass [10]): 0
- Plant response rating, Ducksalad (Heteranthera limosa): 70
- Plant response rating, Kochia (kochia [11]; [16]): 20
- Plant response rating, Kochia (kochia [11]; [17]): 80
- Plant response rating, Galium (galium; [16]): 20
- Plant response rating, Galium (galium; [17]): 30
- Plant response rating, Pigweed (pigweed [12]; [18]): 90
- Pigweed plant response rating (0 to 100 scale) (pigweed [12]; 125 g ai/ha): 90
- Plant response rating, Ragweed (ragweed [13]; [18]): 0
- Ragweed plant response rating (0 to 100 scale) (ragweed [13]; 125 g ai/ha): 0

Source: patent US9695155B2, “Herbicidal substituted pyrimidinyloxy benzene compounds” (E. I. DU PONT DE NEMOURS AND COMPANY, priority 2013, dated 2017)
